Measured values as given in patent US20240174680A1, “CDK2 INHIBITORS AND METHODS OF USING THE SAME” (Cedilla Therapeutics, Inc., priority 2021, published 2024).

Target: CDK2/Cyclin E1 (Homo sapiens, UniProt P24941)
Test: CDK2/Cyclin E1 Caliper LabChip EZ Reader mobility shift assay
Format: biochemical
Parameters: purchased Eurofins 14-475
Details: read-out: Caliper Assay (CDK2/CCNE1): IC50
How it was run: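 Mobility-shift kinase assay: compound titrations preincubated 30 min with enzyme and ATP, reaction started with 5-FAM-QSPKKG-CONH2 peptide. Final 2.5 nM CDK2/Cyclin E1, 100 μM ATP, 1.5 μM peptide, HEPES pH 7.5; stopped with EDTA after 100 min. IC50 from four-parameter fit of normalized conversion ratio.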

Compound | IC50 [nM]
COC(=O)c1ccc(C2CCN(C(=O)[C@@H](NC(=O)[C@@H]3CN(C(=O)c4cnn(Cc5ccccc5)c4)CC34CN(C(=O)[C@H]3CC3(C)C)C4)[C@@H](C)OCC3CCCCC3)CC2)cc1 [I-147] | ≤ 10
CO[C@H]1COCC[C@@H]1NC(=O)[C@@H]1CN(C(=O)c2cnn(Cc3ccccc3)c2)CC12CN(C(=O)[C@H]1CC1(C)C)C2 [I-148A] | > 10000
CO[C@H]1COCC[C@@H]1NC(=O)[C@H]1CN(C(=O)c2cnn(Cc3ccccc3)c2)CC12CN(C(=O)[C@H]1CC1(C)C)C2 [I-148B] | > 10000
C[C@@H](OCC1CCCCC1)[C@H](NC(=O)C1CN(C(=O)c2cnn(Cc3ccccc3)c2)CC12CN(C(=O)[C@H]1CC1(C)C)C2)C(=O)N1CCC(F)(F)CC1 (stereo partly drawn) [I-149 mixture] | ≤ 10
C[C@@H](OCC1CCCCC1)[C@H](NC(=O)[C@@H]1CN(C(=O)c2cnn(Cc3ccccc3)c2)CC12CN(C(=O)[C@H]1CC1(C)C)C2)C(=O)N1CCC(F)(F)CC1 [I-149A] | ≤ 10
C[C@@H](OCC1CCCCC1)[C@H](NC(=O)[C@H]1CN(C(=O)c2cnn(Cc3ccccc3)c2)CC12CN(C(=O)[C@H]1CC1(C)C)C2)C(=O)N1CCC(F)(F)CC1 [I-149B] | 100 to 1000
C[C@@H](OCC1CCCCC1)[C@H](NC(=O)[C@H]1CN(C(=O)c2cn[nH]c2)CC12CN(C(=O)[C@H]1CC1(C)C)C2)C(=O)N1CCCCC1 [I-151B] | 1000 to 10000
C[C@@H](OCC1CCCCC1)[C@H](NC(=O)C1CN(C(=O)c2cnn(Cc3ccccc3)c2)CC12CN(C(=O)[C@H]1CC1(C)C)C2)C(=O)N1CCOCC1 (stereo partly drawn) [I-152 mixture] | ≤ 10
C[C@@H](OCC1CCCCC1)[C@H](NC(=O)[C@@H]1CN(C(=O)c2cnn(Cc3ccccc3)c2)CC12CN(C(=O)[C@H]1CC1(C)C)C2)C(=O)N1CCOCC1 [I-152A] | ≤ 10
C[C@@H](OCC1CCCCC1)[C@H](NC(=O)[C@H]1CN(C(=O)c2cnn(Cc3ccccc3)c2)CC12CN(C(=O)[C@H]1CC1(C)C)C2)C(=O)N1CCOCC1 [I-152B] | 1000 to 10000
C[C@@H](OCC1CCCCC1)[C@H](NC(=O)C1CN(C(=O)c2cnn(Cc3ccccc3)c2)CC12CN(C(=O)[C@H]1CC1(C)C)C2)C(=O)N1CC(C)(C)C1 (stereo partly drawn) [I-153 mixture] | ≤ 10
C[C@@H](OCC1CCCCC1)[C@H](NC(=O)[C@H]1CN(C(=O)c2cnn(Cc3ccccc3)c2)CC12CN(C(=O)[C@H]1CC1(C)C)C2)C(=O)N1CC(C)(C)C1 [I-153B] | 1000 to 10000
C[C@@H](OCC1CCCCC1)[C@H](NC(=O)[C@H]1CN(C(=O)c2cn[nH]c2)CC12CN(C(=O)[C@H]1CC1(C)C)C2)C(=O)N1CCC(F)(F)CC1 [I-154B] | 1000 to 10000
CNC(=O)[C@H](CCCC1CCCCC1)NC(=O)[C@@H]1CN(C(=O)c2cnn(Cc3ccccc3)c2)CC12CN(C(=O)[C@H]1CC1(C)C)C2 [I-155A] | 100 to 1000
CNC(=O)[C@H](CCCC1CCCCC1)NC(=O)[C@H]1CN(C(=O)c2cnn(Cc3ccccc3)c2)CC12CN(C(=O)[C@H]1CC1(C)C)C2 [I-155B] | 1000 to 10000
CNC(=O)[C@@H](NC(=O)[C@@H]1CN(C(=O)c2cnc(C)s2)CC12CN(C(=O)[C@H]1CC1(C)C)C2)[C@@H](C)OCC1CCCCC1 [I-156A] | 10 to 100
CNC(=O)[C@@H](NC(=O)[C@H]1CN(C(=O)c2cnc(C)s2)CC12CN(C(=O)[C@H]1CC1(C)C)C2)[C@@H](C)OCC1CCCCC1 [I-156B] | > 10000
CNC(=O)[C@@H](NC(=O)[C@@H]1CN(C(=O)c2scnc2Cl)CC12CN(C(=O)[C@H]1CC1(C)C)C2)[C@@H](C)OCC1CCCCC1 [I-157A] | 10 to 100
CNC(=O)[C@@H](NC(=O)[C@H]1CN(C(=O)c2scnc2Cl)CC12CN(C(=O)[C@H]1CC1(C)C)C2)[C@@H](C)OCC1CCCCC1 [I-157B] | 100 to 1000
Cc1noc([C@H](C)NC(=O)[C@@H]2CN(C(=O)c3cnn(Cc4ccccc4)c3)CC23CN(C(=O)[C@H]2CC2(C)C)C3)n1 [I-158A] | > 10000
Cc1noc([C@H](C)NC(=O)[C@H]2CN(C(=O)c3cnn(Cc4ccccc4)c3)CC23CN(C(=O)[C@H]2CC2(C)C)C3)n1 [I-158B] | > 10000
CNC(=O)[C@@H](NC(=O)C1CN(Cc2n[nH]c3ccccc23)CC12CN(C(=O)[C@H]1CC1(C)C)C2)[C@@H](C)OCc1ccccc1 (stereo partly drawn) [I-159] | > 10000
CNC(=O)[C@@H](NC(=O)[C@@H]1CN(C(=O)c2scnc2C)CC12CN(C(=O)[C@H]1CC1(C)C)C2)[C@@H](C)OCC1CCCCC1 [I-160A] | 10 to 100
CNC(=O)[C@@H](NC(=O)[C@H]1CN(C(=O)c2scnc2C)CC12CN(C(=O)[C@H]1CC1(C)C)C2)[C@@H](C)OCC1CCCCC1 [I-160B] | > 10000
CNC(=O)[C@@H](NC(=O)[C@@H]1CN(C(=O)c2cnc(C(F)(F)F)s2)CC12CN(C(=O)[C@H]1CC1(C)C)C2)[C@@H](C)OCC1CCCCC1 [I-161A] | > 10000
CNC(=O)[C@@H](NC(=O)[C@H]1CN(C(=O)c2cnc(C(F)(F)F)s2)CC12CN(C(=O)[C@H]1CC1(C)C)C2)[C@@H](C)OCC1CCCCC1 [I-161B] | > 10000

Compound | IC50 [nM]
CNC(=O)[C@@H](NC(=O)[C@@H]1CN(C(=O)c2sc(COC)nc2C)CC12CN(C(=O)[C@H]1CC1(C)C)C2)[C@@H](C)OCC1CCCCC1 [I-162A] | 10 to 100
CNC(=O)[C@@H](NC(=O)[C@H]1CN(C(=O)c2sc(COC)nc2C)CC12CN(C(=O)[C@H]1CC1(C)C)C2)[C@@H](C)OCC1CCCCC1 [I-162B] | > 10000
CNC(=O)[C@@H](NC(=O)[C@@H]1CN(C(=O)c2scnc2C(F)(F)F)CC12CN(C(=O)[C@H]1CC1(C)C)C2)[C@@H](C)OCC1CCCCC1 [I-163A] | > 10000
CNC(=O)[C@@H](NC(=O)[C@H]1CN(C(=O)c2scnc2C(F)(F)F)CC12CN(C(=O)[C@H]1CC1(C)C)C2)[C@@H](C)OCC1CCCCC1 [I-163B] | > 10000
C[C@@H](OCC1CCC(F)(F)CC1)[C@H](NC(=O)[C@@H]1CN(C(=O)c2cnn(Cc3ccc(F)cc3)c2)CC12CN(C(=O)[C@H]1CC1(C)C)C2)C(=O)N1CCC(F)(F)CC1 [I-164A] | ≤ 10
C[C@@H](OCC1CCC(F)(F)CC1)[C@H](NC(=O)[C@H]1CN(C(=O)c2cnn(Cc3ccc(F)cc3)c2)CC12CN(C(=O)[C@H]1CC1(C)C)C2)C(=O)N1CCC(F)(F)CC1 [I-164B] | 10 to 100
CNC(=O)[C@@H](NC(=O)[C@H]1CN(C(=O)c2cnn(Cc3ccccc3)c2)CC12CN(C(=O)[C@H]1CC1(C)C)C2)[C@H](C)OCC1CCCCC1 [I-165] | > 10000
CNC(=O)[C@@H](NC(=O)[C@@H]1CN(C(=O)c2cnn(Cc3ccccc3)c2)CC12CN(C(=O)[C@H]1CC1(C)C)C2)[C@@H](C)OCC1CCCCCC1 [I-166A] | ≤ 10
CNC(=O)[C@@H](NC(=O)[C@H]1CN(C(=O)c2cnn(Cc3ccccc3)c2)CC12CN(C(=O)[C@H]1CC1(C)C)C2)[C@@H](C)OCC1CCCCCC1 [I-166B] | 100 to 1000
CNC(=O)[C@@H](NC(=O)[C@H]1CN(C(=O)c2cnn(Cc3ccc(F)cc3)c2)CC12CN(C(=O)[C@H]1CC1(C)C)C2)[C@@H](C)OCC1CCC(F)(F)CC1 [I-167] | 100 to 1000
CC1(C)C[C@@H]1C(=O)N1CC2(CN(C(=O)c3cnn(Cc4ccccc4)c3)C[C@@H]2C(=O)Nc2ccc(Cc3ccccc3)nc2)C1 [I-168] | 1000 to 10000
CNC(=O)[C@@H](NC(=O)[C@@H]1CN(C(=O)c2nccs2)CC12CN(C(=O)[C@H]1CC1(C)C)C2)[C@@H](C)OCC1CCCCC1 [I-169] | > 10000
CNC(=O)[C@@H](NC(=O)[C@@H]1CN(C(=O)c2cnn(Cc3ccc(F)cc3)c2)CC12CN(C(=O)[C@H]1CC1(C)C)C2)[C@@H](C)OCC1CCC(F)(F)CC1 [I-170] | ≤ 10
CNC(=O)[C@@H](NC(=O)[C@@H]1CN(C(=O)c2cnn(Cc3ccccc3)c2)CC12CN(C(=O)[C@H]1CC1(C)C)C2)C(C)(C)SCc1ccccc1 [I-171A, (S)-6-(1-benzyl-1H-pyrazole-4-carbonyl)-N—((R)-3-(benzylthio)-3-methyl-1-(methylamino)-1-oxobutan-2-yl)-2-((S)-2,2-dimethylcyclopropane-1-carbonyl)-2,6-diazaspiro[3.4]octane-8-carboxamide] | 100 to 1000
CNC(=O)[C@@H](NC(=O)[C@H]1CN(C(=O)c2cnn(Cc3ccccc3)c2)CC12CN(C(=O)[C@H]1CC1(C)C)C2)C(C)(C)SCc1ccccc1 [I-171B] | > 10000
C[C@@H]1C[C@H](C)CN(C(=O)[C@@H](NC(=O)C2CN(C(=O)c3cncs3)CC23CN(C(=O)[C@H]2CC2(C)C)C3)[C@@H](C)OCC2CCCCC2)C1 (stereo partly drawn) [I-172] | ≤ 10
CNC(=O)[C@@H](NC(=O)[C@@H]1CN(C(=O)c2cnn(Cc3ccccc3)c2)CC12CN(C(=O)C(C)(C)C)C2)[C@@H](C)OCC1CCCCC1 [I-174A] | 10 to 100
CNC(=O)[C@@H](NC(=O)[C@H]1CN(C(=O)c2cnn(Cc3ccccc3)c2)CC12CN(C(=O)C(C)(C)C)C2)[C@@H](C)OCC1CCCCC1 [I-174B] | 100 to 1000
CNC(=O)[C@@H](NC(=O)[C@@H]1CN(C(=O)c2cnc(COC(C)(C)C)s2)CC12CN(C(=O)[C@H]1CC1(C)C)C2)[C@@H](C)OCC1CCCCC1 [I-175A] | ≤ 10
CNC(=O)[C@@H](NC(=O)[C@H]1CN(C(=O)c2cnc(COC(C)(C)C)s2)CC12CN(C(=O)[C@H]1CC1(C)C)C2)[C@@H](C)OCC1CCCCC1 [I-175B] | 100 to 1000
C[C@@H](OCc1ccccc1)[C@H](NC(=O)[C@@H]1CN(C(=O)c2cnn(Cc3ccccc3)c2)CC12CN(C(=O)[C@H]1CC1(C)C)C2)C(N)=O [I-176A] | 10 to 100
C[C@@H](OCc1ccccc1)[C@H](NC(=O)[C@H]1CN(C(=O)c2cnn(Cc3ccccc3)c2)CC12CN(C(=O)[C@H]1CC1(C)C)C2)C(N)=O [I-176B] | 1000 to 10000
CNC(=O)[C@@H](NC(=O)[C@@H]1CN(C(=O)c2cnc(CC3CC3)s2)CC12CN(C(=O)[C@H]1CC1(C)C)C2)[C@@H](C)OCC1CCCCC1 [I-177A] | 100 to 1000
CNC(=O)[C@@H](NC(=O)[C@H]1CN(C(=O)c2cnc(CC3CC3)s2)CC12CN(C(=O)[C@H]1CC1(C)C)C2)[C@@H](C)OCC1CCCCC1 [I-177B] | 1000 to 10000
CNC(=O)[C@@H](NC(=O)[C@@H]1CN(C(=O)c2cnc(C3CC3)s2)CC12CN(C(=O)[C@H]1CC1(C)C)C2)[C@@H](C)OCC1CCCCC1 [I-178A] | 100 to 1000
